# In US9649308B2, “Benzamide-containing compounds and their use in the treatment of pain” (H. Lundbeck A/S, priority 2012, dated 2017):
# Molecular target: human P2X7 receptor (Homo sapiens (Human), UniProt Q99572)
# Assay: P2X7 FLIPR antagonist assay (BzATP-stimulated, 293 HEK cells stably expressing P2X7 receptor)
# Format: cell-based
# Conditions: Table 1, exemplified IC50 values; antagonist activity vs BzATP
# Method: This example illustrates representative assays for use in evaluating the test compounds for antagonist activity. Compounds of the present invention were tested in vitro for their ability to act as antagonists to the P2X7 receptor.
# Cells were plated to cell density of approximately 15,000 cells/well in 384-well assay plates (50 μl/well) with 1.5% low serum media (DMEM, 1.5% BCS, 1% L-glut (2 mM), 1% P/S).
# Cells were plated to cell density of approximately 15,000 cells/well in 384-well assay plates (50 μl/well) with 1.5% low serum media (DMEM, 1.5% FBS, 1% L-glut (2 mM), 10 mM HEPES, 1% P/S). Cells were plated 24 hours prior to assay. Cells expressing human, rat or mouse P2X7 receptor were assayed in the following manner.
# Fluo-4 NW dye mix (Molecular Probes, Inc., Eugene, Oreg., USA) was prepared in buffer (see manufacturer's instructions). Cell plates were removed from the 37° C. incubator, the media discarded and then 30 μL of dye was added to each well. Plates were placed in the 37° C., non-CO2 incubator for 30 minutes and then room temperature for 30 minutes.
# B) Agonist only mixture was prepared with BzATP at a single concentration in buffer (concentration determined by dose response).
# Compound mixtures (A) were added to assay plates containing cells and placed at room temperature for 30 minutes, then BzATP (B) was added. Fluorescence was read using the Tetra FLIPR® (Molecular Devices, Inc., Sunnyvale, Calif., USA) and IC50 values were calculated by standard methods to determine antagonist activity.
# Sequence of human P2X7 receptor (Q99572 whole entry): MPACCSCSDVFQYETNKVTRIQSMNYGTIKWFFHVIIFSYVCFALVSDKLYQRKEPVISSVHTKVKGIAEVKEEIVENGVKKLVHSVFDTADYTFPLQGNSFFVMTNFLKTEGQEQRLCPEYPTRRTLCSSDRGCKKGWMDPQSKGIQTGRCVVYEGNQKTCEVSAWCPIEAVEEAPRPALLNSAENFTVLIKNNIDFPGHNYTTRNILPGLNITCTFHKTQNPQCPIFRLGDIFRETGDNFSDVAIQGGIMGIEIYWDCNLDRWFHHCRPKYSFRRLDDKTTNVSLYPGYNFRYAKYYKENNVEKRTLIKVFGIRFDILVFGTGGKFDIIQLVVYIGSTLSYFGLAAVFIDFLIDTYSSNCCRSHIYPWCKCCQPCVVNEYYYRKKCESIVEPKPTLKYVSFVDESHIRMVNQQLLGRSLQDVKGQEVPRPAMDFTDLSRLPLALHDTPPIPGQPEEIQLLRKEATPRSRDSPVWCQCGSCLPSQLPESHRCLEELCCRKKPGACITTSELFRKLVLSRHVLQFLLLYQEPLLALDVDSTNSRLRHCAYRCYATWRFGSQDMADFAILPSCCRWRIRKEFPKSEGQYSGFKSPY
row,IC50,Structure (SMILES)
1,50 nM,"Cc1ncc(C(CNC(=O)c2cccc(Cl)c2Cl)c2ccncc2)cn1 (stereo not shown) [2,3-dichloro-N-[2-(2-methylpyrimidin-5-yl)-2-(4-pyridyl)ethyl]benzamide]"
2,640 nM,Cc1ncc(C(CNC(=O)c2c(F)cccc2Cl)c2ccncc2)cn1 (stereo not shown) [2-chloro-6-fluoro-N-[2-(2-methylpyrimidin-5-yl)-2-(4-pyridyl)ethyl]benzamide]

# Further lines, the molecule ahead of its results:
row,Structure (SMILES),IC50
1,"Cc1ncc(C(CNC(=O)c2cccc(Cl)c2Cl)C2CCC(F)(F)CC2)cn1 (single isomer, unassigned; (+)) [(+)2,3-dichloro-N-[2-(4,4-difluorocyclohexyl)-2-(2-methylpyr] [(+)2,3-dichloro-N-[2-(4,4-difluorocyclohexyl)-2-(2-methylpyrimidin-5-yl)ethyl]benzamide]",8.4 nM
2,"Cc1ncc(C(CNC(=O)c2cccc(Cl)c2Cl)C2CCC(F)(F)CC2)cn1 (single isomer, unassigned; (-)) [(−)2,3-dichloro-N-[2-(4,4-difluorocyclohexyl)-2-(2-methylpyr] [(−)2,3-dichloro-N-[2-(4,4-difluorocyclohexyl)-2-(2-methylpyrimidin-5-yl)ethyl]benzamide]",16 nM
3,"O=C(NCC(CC1CC1)c1ccc(C(F)F)nc1)c1cccc(Cl)c1Cl (single isomer, unassigned; (-)) [(−)2,3-dichloro-N-[3-cyclopropyl-2-[6-(difluoromethyl)-3-pyr] [(−)2,3-dichloro-N-[3-cyclopropyl-2-[6-(difluoromethyl)-3-pyridyl]propyl]benzamide]",1.9 nM
4,Cc1ncc(C2(C(C)NC(=O)c3c(F)cccc3Cl)CCOCC2)cn1 (stereo not shown) [2-chloro-6-fluoro-N-[1-[4-(2-methylpyrimidin-5-yl)tetrahydropyran-4-yl]ethyl]benzamide],55 nM
5,O=C(NCC1(c2cnc(C(F)(F)F)nc2)CCOCC1)c1ccccc1Cl [2-chloro-N-[[4-[2-(trifluoromethyl)pyrimidin-5-yl]tetrahydropyran-4-yl]methyl]benzamide],4400 nM
